Data published in patent publication US12630547B2, “RAS protein degraders, pharmaceutical compositions thereof, and their therapeutic applications” (BioTheryX, Inc., priority 2019, dated 2026).

What was measured:
Format in all cases: cell-based
MOLM-13 cells = assay: Cell viability assay (CELLTITER-GLO), MOLM-13 cells; conditions: Homo sapiens, MOLM-13, 72 h; Table 2; compound at 10 μM, 3 days; read-out: Effect on MOLM-13 cell viability (% DMSO)
Protocol: (§1) MOLM-13 cells, MV-4-11 cells, H23, and H358 cells were independently cultured in RPMI 1640 media supplemented with 10% fetal bovine serum, streptomycin and penicillin. The cells were plated in white walled 96-well plates at 4,000 cells/well. The cells were incubated in DMSO (control) or a compound for 3 days at 37° C. under 5% CO2. A CELLTITER-GLO® reagent (100 μL) was then added to each well. After a 10 min incubation with shaking, luminescence was measured using an ENVISION® multimode plate reader.
In Tables 1 and 2, each compound was tested at 10 μM; and in Table 3, each compound was tested at 1 μM. In Tables 1 to 3, the cell viability values as % DMSO are reported as “A,” “B,” “C,” or “D;” where “A” represents a % viability value of less than 10%; “B” represents a % viability value of no less than 10% and less than 25%; “C” represents a % viability value of no less than 25% and less than 50%; and “D” represents a % viability value of no less than 50%. Compound A is […]

H358 cells = assay: Cell viability assay (CELLTITER-GLO), H358 cells; conditions: Table 4; 3 days
Protocol: as §1
In Tables 1 and 2, each compound was tested at 10 μM; and in Table 3, each compound was tested at 1 μM. In Tables 1 to 3, the cell viability values as % DMSO are reported as “A,” “B,” “C,” or “D;” where “A” represents a % viability value of less than 10%; “B” represents a % viability value of no less than 10% and less than 25%; “C” represents a % viability value of no less than 25% and less than 50%; and “D” represents a % viability value of no less than 50%. Compound A is
(§2) IC50 values are summarized in Table 4, where “A” represents an IC50 value of no greater than 1 μM, “B” represents an IC50 value of greater than 1 μM and no greater than 5 μM, “C” represents an IC50 value of greater than 5 μM and no greater than 10 μM, and “D” represents an IC50 value of greater than 10 μM.

H23 cells = assay: Cell viability assay (CELLTITER-GLO), H23 cells; conditions: Table 4; 3 days
Protocol: as §1, §2

| SMILES | viability at 10 µM (MOLM-13 cells) [%] | Inhibition of H358 cells, IC50 (class) (H358 cells) | Inhibition of H23 cells, IC50 (class) (H23 cells) |
| --- | --- | --- | --- |
| CCC(=O)N1CCN(c2ncnc3c(F)c(-c4c(F)cccc4OCCCCCCCNCc4ccc(OCc5scc6c5CN([C@H]5CCC(=O)NC5=O)C6=O)cc4)c(Cl)cc23)CC1 [Compound 25, (3S)-3-(1-((4-(((7-(2-(6-Chloro-8-fluoro-4-(4-propionylpiperazin-1-yl)quinazolin-7-yl)-3-fluorophenoxy)heptyl)amino)methyl)phenoxy)methyl)-4-oxo-4H-thieno[3,4-c]pyrrol-5(6H)-yl)piperidine-2,6-dione] | < 10 | – | – |
| CCC(=O)N1CC(c2nc3ccc(-c4cc(O)cc5ccccc45)cc3c(=O)n2CCOCCNCc2ccc(OCc3scc4c3CN(C3CCC(=O)NC3=O)C4=O)cc2)C1 (centres unmarked) [Compound 26, 3-(1-((4-(((2-(2-(6-(3-Hydroxynaphthalen-1-yl)-4-oxo-2-(1-propionylazetidin-3-yl)quinazolin-3(4H)-yl)ethoxy)ethyl)amino)methyl)phenoxy)methyl)-4-oxo-4H-thieno[3,4-c]pyrrol-5(6H)-yl)piperidine-2,6-dione] | ≥ 50 | – | – |
| C=CC(=O)N1CCN(c2ncnc3c(F)c(-c4c(F)cccc4OCCCCCCCNC(=O)NCc4scc5c4CN(C4CCC(=O)NC4=O)C5=O)c(Cl)cc23)CC1 (centres unmarked) [Compound 27, 1-(7-(2-(4-(4-Acryloylpiperazin-1-yl)-6-chloro-8-fluoroquinazolin-7-yl)-3-fluorophenoxy)heptyl)-3-((5-(2,6-dioxopiperidin-3-yl)-4-oxo-5,6-dihydro-4H-thieno[3,4-c]pyrrol-1-yl)methyl)urea] | < 10 | – | – |
| CCC(=O)N1CCN(c2ncnc3c(F)c(-c4c(F)cccc4OCCCCCCCNC(=O)NCc4scc5c4CN(C4CCC(=O)NC4=O)C5=O)c(Cl)cc23)CC1 (centres unmarked) [Compound 28, 1-(7-(2-(6-Chloro-8-fluoro-4-(4-propionylpiperazin-1-yl)quinazolin-7-yl)-3-fluorophenoxy)heptyl)-3-((5-(2,6-dioxopiperidin-3-yl)-4-oxo-5,6-dihydro-4H-thieno[3,4-c]pyrrol-1-yl)methyl)urea] | < 10 | – | – |
| C=CC(=O)N1CCN(c2ncnc3c(F)c(-c4c(F)cccc4OCCOCCOCCC(=O)NCCNc4cccc5c4CN(C4CCC(=O)NC4=O)C5=O)c(Cl)cc23)CC1 (centres unmarked) [Compound 29, 3-(2-(2-(2-(4-(4-Acryloylpiperazin-1-yl)-6-chloro-8-fluoroquinazolin-7-yl)-3-fluorophenoxy)ethoxy)ethoxy)-N-(2-((2-(2,6-dioxopiperidin-3-yl)-1-oxoisoindolin-4-yl)amino)ethyl)propanamide] | < 10 | – | – |
| CCC(=O)N1CCN(c2ncnc3c(F)c(-c4c(F)cccc4OCCOCCOCCC(=O)NCCNc4cccc5c4CN(C4CCC(=O)NC4=O)C5=O)c(Cl)cc23)CC1 (centres unmarked) [Compound 30, 3-(2-(2-(2-(6-chloro-8-fluoro-4-(4-propionylpiperazin-1-yl)quinazolin-7-yl)-3-fluorophenoxy)ethoxy)ethoxy)-N-(2-((2-(2,6-dioxopiperidin-3-yl)-1-oxoisoindolin-4-yl)amino)ethyl)propanamide] | ≥ 50 | – | – |
| CC(=O)N1CCN(c2ncnc3c(F)c(-c4c(F)cccc4OCCOCCOCCOCCNc4cccc5c4C(=O)N(C4CCC(=O)NC4=O)C5=O)c(Cl)cc23)CC1 (centres unmarked) [Compound 31, 4-((2-(2-(2-(2-(2-(4-(4-Acetylpiperazin-1-yl)-6-chloro-8-fluoroquinazolin-7-yl)-3-fluorophenoxy)ethoxy)ethoxy)ethoxy)ethyl)amino)-2-(2,6-dioxopiperidin-3-yl)isoindoline-1,3-dione] | ≥ 50 | – | – |
| NC(=O)N1CCN(c2ncnc3c(F)c(-c4c(F)cccc4OCCOCCOCCOCCNc4cccc5c4C(=O)N(C4CCC(=O)NC4=O)C5=O)c(Cl)cc23)CC1 (centres unmarked) [Compound 32, 4-(6-Chloro-7-(2-(2-(2-(2-(2-((2-(2,6-dioxopiperidin-3-yl)-1,3-dioxoisoindolin-4-yl)amino)ethoxy)ethoxy)ethoxy)ethoxy)-6-fluorophenyl)-8-fluoroquinazolin-4-yl)piperazine-1-carboxamide] | ≥ 50 | – | – |
| CCC(=O)N1CCN(c2ncnc3c(F)c(-c4c(F)cccc4OCCCCCCCCNc4cccc5c4C(=O)N(C4CCC(=O)NC4=O)C5=O)c(Cl)cc23)CC1 (centres unmarked) [Compound 33, 4-((8-(2-(6-Chloro-8-fluoro-4-(4-propionylpiperazin-1-yl)quinazolin-7-yl)-3-fluorophenoxy)octyl)amino)-2-(2,6-dioxopiperidin-3-yl)isoindoline-1,3-dione] | 25 to 50 | – | – |
| C=CC(=O)N1CCN(c2ncnc3c(F)c(-c4c(F)cccc4OCCCCCCCCNc4cccc5c4C(=O)N(C4CCC(=O)NC4=O)C5=O)c(Cl)cc23)CC1 (centres unmarked) [Compound 34, 4-((8-(2-(4-(4-Acryloylpiperazin-1-yl)-6-chloro-8-fluoroquinazolin-7-yl)-3-fluorophenoxy)octyl)amino)-2-(2,6-dioxopiperidin-3-yl)isoindoline-1,3-dione] | 10 to 25 | – | – |
| CCC(=O)N1CC(N2Cc3ccc(-c4cc(O)cc5ccccc45)cc3N(CC(=O)NCCCCCCCN3CCC(c4cc(F)cc5c4CN(C4CCC(=O)NC4=O)C5=O)CC3)C2=O)C1 (centres unmarked) [Compound 35, N-(7-(4-(2-(2,6-Dioxopiperidin-3-yl)-6-fluoro-1-oxoisoindolin-4-yl)piperidin-1-yl)heptyl)-2-(7-(3-hydroxynaphthalen-1-yl)-2-oxo-3-(1-propionylazetidin-3-yl)-3,4-dihydroquinazolin-1(2H)-yl)acetamide] | 10 to 25 | – | – |
| C=CC(=O)N1CCN(c2ncnc3c(F)c(-c4cc(OCCOCCOCCC(=O)NCCNc5cccc6c5CN(C5CCC(=O)NC5=O)C6=O)ccc4F)c(Cl)cc23)CC1 [Compound 39, 3-(2-(2-((R)-3-(4-(4-Acryloylpiperazin-1-yl)-6-chloro-8-fluoroquinazolin-7-yl)-4-fluorophenoxy)ethoxy)ethoxy)-N-(2-((2-(2,6-dioxopiperidin-3-yl)-1-oxoisoindolin-4-yl)amino)ethyl)propanamide] | – | D′ | D′ |
| C=CC(=O)N1CCN(c2nc(OCCOCCOCCOCCNc3cccc4c3C(=O)N(C3CCC(=O)NC3=O)C4=O)nc3c2CCN(c2cccc4ccccc24)C3)C[C@H]1C (stereo partly drawn) [Compound 47, 4-((2-(2-(2-(2-((4-((R)-4-Acryloyl-3-methylpiperazin-1-yl)-7-(naphthalen-1-yl)-5,6,7,8-tetrahydropyrido[3,4-d]pyrimidin-2-yl)oxy)ethoxy)ethoxy)ethoxy)ethyl)amino)-2-(2,6-dioxopiperidin-3-yl)isoindoline-1,3-dione] | – | C′ | B′ |
| CCC(=O)N1CCN(c2nc(OCCOCCOCCOCCNc3cccc4c3C(=O)N(C3CCC(=O)NC3=O)C4=O)nc3c2CCN(c2cccc4ccccc24)C3)C[C@H]1C (stereo partly drawn) [Compound 48, 2-(2,6-Dioxopiperidin-3-yl)-4-((2-(2-(2-(2-((4-((R)-3-methyl-4-propionylpiperazin-1-yl)-7-(naphthalen-1-yl)-5,6,7,8-tetrahydropyrido[3,4-d]pyrimidin-2-yl)oxy)ethoxy)ethoxy)ethoxy)ethyl)-amino)isoindoline-1,3-dione] | – | D′ | D′ |
| CCC(=O)N1CCN(c2ncnc3c(Cl)c(-c4c(F)cccc4OCCCCCCCCN4CCC(c5cc(F)cc6c5CN(C5CCC(=O)NC5=O)C6=O)CC4)c(F)cc23)CC1 [Compound 49, 3-(4-(1-(8-((R)-2-(8-Chloro-6-fluoro-4-(4-propionylpiperazin-1-yl)quinazolin-7-yl)-3-fluorophenoxy)octyl)piperidin-4-yl)-6-fluoro-1-oxoisoindolin-2-yl)piperidine-2,6-dione] | – | B′ | B′ |
| C=CC(=O)N1CCN(c2ncnc3c(F)c(-c4c(F)cccc4OCCCCCCC(=O)N[C@H](C(=O)N4C[C@H](O)C[C@H]4C(=O)NCc4ccc(-c5scnc5C)cc4)C(C)(C)C)c(Cl)cc23)CC1 [Compound 50, (2S,4R)-1-((2S)-2-(7-(2-(4-(4-Acryloylpiperazin-1-yl)-6-chloro-8-fluoroquinazolin-7-yl)-3-fluorophenoxy)heptanamido)-3,3-dimethylbutanoyl)-4-hydroxy-N-(4-(4-methylthiazol-5-yl)benzyl)pyrrolidine-2-carboxamide] | – | A′ | B′ |
| O=C1CCC(N2Cc3c(cc(F)cc3C3CCN(CCCCCCCOc4cccc(F)c4-c4c(Cl)cc5c(N6CCN(C(=O)C7CCCC7)CC6)ncnc5c4F)CC3)C2=O)C(=O)N1 (centres unmarked) [Compound 51, 3-(4-(1-(7-(2-(6-Chloro-4-(4-(cyclopentanecarbonyl)piperazin-1-yl)-8-fluoroquinazolin-7-yl)-3-fluorophenoxy)heptyl)piperidin-4-yl)-6-fluoro-1-oxoisoindolin-2-yl)piperidine-2,6-dione] | – | B′ | B′ |
